Experimental findings from patent publication US9745261B2, “Inhibitors of the MITF molecular pathway” (THE GENERAL HOSPITAL CORPORATION, priority 2013, dated 2017) are described below.

One data set concerns SK-MEL-5 cells. The experiment in a line: SK-MEL-5 cell cytotoxicity assay (CellTiter-Glo). It counts as cell-based, human. The conditions noted are these: Homo sapiens, SK-MEL-5; 24 hours, CellTiter-Glo; read-out: Target Potency IC50 (μM) SKMEL5. The protocol:
SK-MEL-5 cells were treated with compounds for 24 hours, and then cell viability was measured using the CellTiter-Glo Assay (Promega), a luciferase-based reagent that measures cellular ATP levels. The compounds were tested at different concentrations to determine IC50 values. Compounds that were active in the primary assay and toxic below 30 μM at 24 hours were considered for probe development. Data were normalized against DMSO in Genedata Screener's Assay Analyzer.
SK-MEL-5 cells were maintained in DMEM (10% FBS, 1% Pen-Strep-Glutamine). Cells were fluid changed every 3 days and/or split upon reaching 100% confluency. For secondary assays, cells were thawed at 4 million cells per Falcon T175 flask. After 3 days, the cells were fluid changed, after 3 more days cells were passed to a Corning Triple flask (10-15 million cells) and plated after 3 days in the triple flask.
Day 1 • 1. Plate SK-MEL-5 cells at 3,000 per well in 30 uL media (phenol red free DMEM/10% Fetal Bovine Serum/Penicillin/Streptomycin/L-Glutamine) • 2. Use Corning white 384-well, square, opaque-bottomed plates (Corning Catalog No. 8867BC)
Day 2 • 3. Pin 100 nL compound/DMSO solution (Cybi Well) into assay plates. (For HTS, required sentinel pinning with the positive control, parthenolide (6 mM)) • 4. […]
(§1) Day 3 • 5. […] Read on the Perkin-Elmer EnVision plate reader with luminescence (LUM) settings for 0.1 sec per well. […]
A general note: ATP-based viability assays read luminescence as a measure of living cells.

A further data set deals with A375 cells. The experiment in a line: A-375 cell cytotoxicity assay (CellTiter-Glo). Format: cell-based, human. Conditions: Homo sapiens, A-375; 24 hours, CellTiter-Glo; read-out: Antitarget Potency IC50 (μM) A375. As for the experimental part: A375 cells were treated with compounds for 24 hours, and then cell viability was measured using the CellTiter-Glo Assay (Promega), a luciferase-based reagent that measures cellular ATP levels. The compounds were tested at different concentrations to determine IC50 values. Compounds that were active in the primary assay and were not toxic below 30 μM at 24 hours were considered for probe development. Data were normalized against DMSO in Genedata Screener's Assay Analyzer.
A-375 cells were maintained in DMEM (10% FBS, 1% Pen-Strep-Glutamine). Cells were fluid changed every 3 days and/or split upon reaching 90% confluency. For secondary assays, cells were thawed at 2 million cells per Falcon T175 flask. After 3 days, cells were passed to a Corning Triple flask (6-8 million cells) and plated after 3 days in the triple flask.
Day 1 • 1. Plate A-375 cells at 3,000 per well in 30 uL media (phenol red free DMEM/10% Fetal Bovine Serum/Penicillin/Streptomycin/L-Glutamine) • 2. Use Corning white 384-well, square, opaque-bottomed plates (Corning Catalog No. 8867BC)
Day 2 • 3. Pin 100 nL compound/DMSO solution (Cybi Well) into assay plates. (For HTS, required sentinel pinning with the positive control, parthenolide (6 mM)) • 4. Incubate 24 hours at 37° C. in Liconic incubator.
as §1

A further data set deals with T1, Adenosine A3 (Homo sapiens, UniProt P0DMS8).
T1 construct: Eurofins Panlabs, Inc. (contract assay) 200720 (assay number)
Briefly: Radioligand binding, Adenosine A3.

The next data set addresses T2, Adrenergic β1 (Homo sapiens, UniProt P08588).
T2 construct: Eurofins Panlabs, Inc. (contract assay)
The experiment in a line: Radioligand binding, Adrenergic β1.

A further data set deals with T3, Bradykinin B1 (Homo sapiens, UniProt P46663).
T3 construct: Eurofins Panlabs, Inc. (contract assay)
Briefly: Radioligand binding, Bradykinin B1.

For a further data set, the target named is T4, Bradykinin B2 (Homo sapiens, UniProt P30411).
T4 construct: Eurofins Panlabs, Inc. (contract assay)
Briefly: Radioligand binding, Bradykinin B2.

Another data set concerns the target T5, Dopamine D4.2 (Homo sapiens, UniProt P21917, DEL265-296).
T5 construct: Eurofins Panlabs, Inc. (contract assay)
The experiment in a line: Radioligand binding, Dopamine D4.2.

The next data set deals with T6, Interleukin IL-1 (Mus musculus, UniProt P13504).
T6 construct: Eurofins Panlabs, Inc
The experiment in a line: Radioligand binding, Interleukin IL-1.

Another data set deals with T7, Melatonin MT1 (Homo sapiens, UniProt P48039).
T7 construct: Eurofins Panlabs, Inc
The experiment in a line: Radioligand binding, Melatonin MT1.

The target in a further data set is T8, Neuropeptide Y Y1 (Homo sapiens, UniProt P25929).
T8 construct: Eurofins Panlabs, Inc
The experiment in a line: Radioligand binding, Neuropeptide Y Y1.

The target of a further data set is T9, Neuropeptide Y Y2 (Homo sapiens, UniProt P49146).
T9 construct: Eurofins Panlabs, Inc
The experiment in a line: Radioligand binding, Neuropeptide Y Y2.

The target of the next data set is T10, Potassium Channel hERG (Homo sapiens, UniProt Q12809).
T10 construct: Eurofins Panlabs
The experiment in a line: Radioligand binding, Potassium Channel hERG. For orientation: hERG is a cardiac potassium channel; its block is linked to QT prolongation.

Data set [1] addresses T11, Serotonin (5-Hydroxytryptamine) 5-HT3 (Homo sapiens, UniProt P46098).
T11 construct: Eurofins Panlabs
The experiment in a line: Radioligand binding, Serotonin (5-Hydroxytryptamine) 5-HT3.

In another data set the target is T12, Sigma σ1 (Homo sapiens, UniProt Q99720).
T12 construct: Eurofins Panlabs
The experiment in a line: Radioligand binding, Sigma σ1.

The next data set has as its target T13, Tachykinin NK1 (Homo sapiens, UniProt P25103).
T13 construct: Eurofins Panlabs
The experiment in a line: Radioligand binding, Tachykinin NK1.

Bounds are passed on as bounds.

T11 sequence (P46098 24-478): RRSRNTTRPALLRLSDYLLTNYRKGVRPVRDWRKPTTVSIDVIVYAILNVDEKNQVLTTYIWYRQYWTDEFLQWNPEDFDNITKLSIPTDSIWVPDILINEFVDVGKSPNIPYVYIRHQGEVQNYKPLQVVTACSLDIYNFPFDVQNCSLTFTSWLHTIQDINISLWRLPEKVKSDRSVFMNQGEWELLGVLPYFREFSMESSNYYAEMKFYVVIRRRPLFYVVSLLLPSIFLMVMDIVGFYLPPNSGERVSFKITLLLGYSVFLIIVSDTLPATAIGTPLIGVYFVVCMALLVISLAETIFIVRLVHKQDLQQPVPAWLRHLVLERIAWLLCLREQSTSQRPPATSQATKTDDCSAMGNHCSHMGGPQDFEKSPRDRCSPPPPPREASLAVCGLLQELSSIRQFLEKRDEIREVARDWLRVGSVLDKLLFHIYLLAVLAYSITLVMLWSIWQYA
T3 sequence (P46663 whole entry): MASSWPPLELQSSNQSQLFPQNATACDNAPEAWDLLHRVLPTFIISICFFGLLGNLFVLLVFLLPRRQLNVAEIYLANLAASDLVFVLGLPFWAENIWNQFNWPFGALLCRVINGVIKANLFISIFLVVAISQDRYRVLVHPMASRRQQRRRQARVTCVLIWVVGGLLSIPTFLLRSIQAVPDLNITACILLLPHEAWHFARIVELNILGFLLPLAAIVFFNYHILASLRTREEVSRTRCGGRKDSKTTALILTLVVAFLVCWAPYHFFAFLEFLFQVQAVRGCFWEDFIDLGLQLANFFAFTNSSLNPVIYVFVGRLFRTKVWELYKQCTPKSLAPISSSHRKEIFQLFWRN
T1 sequence (P0DMS8 whole entry): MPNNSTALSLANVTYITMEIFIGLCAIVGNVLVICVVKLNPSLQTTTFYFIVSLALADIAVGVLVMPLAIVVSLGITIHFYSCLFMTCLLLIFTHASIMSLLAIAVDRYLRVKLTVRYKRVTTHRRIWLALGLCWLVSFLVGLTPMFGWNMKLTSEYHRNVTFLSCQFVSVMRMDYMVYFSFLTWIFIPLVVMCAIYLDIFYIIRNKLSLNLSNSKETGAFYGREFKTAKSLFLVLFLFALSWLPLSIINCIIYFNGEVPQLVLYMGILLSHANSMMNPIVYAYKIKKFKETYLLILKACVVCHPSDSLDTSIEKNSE
T10 sequence (Q12809 whole entry): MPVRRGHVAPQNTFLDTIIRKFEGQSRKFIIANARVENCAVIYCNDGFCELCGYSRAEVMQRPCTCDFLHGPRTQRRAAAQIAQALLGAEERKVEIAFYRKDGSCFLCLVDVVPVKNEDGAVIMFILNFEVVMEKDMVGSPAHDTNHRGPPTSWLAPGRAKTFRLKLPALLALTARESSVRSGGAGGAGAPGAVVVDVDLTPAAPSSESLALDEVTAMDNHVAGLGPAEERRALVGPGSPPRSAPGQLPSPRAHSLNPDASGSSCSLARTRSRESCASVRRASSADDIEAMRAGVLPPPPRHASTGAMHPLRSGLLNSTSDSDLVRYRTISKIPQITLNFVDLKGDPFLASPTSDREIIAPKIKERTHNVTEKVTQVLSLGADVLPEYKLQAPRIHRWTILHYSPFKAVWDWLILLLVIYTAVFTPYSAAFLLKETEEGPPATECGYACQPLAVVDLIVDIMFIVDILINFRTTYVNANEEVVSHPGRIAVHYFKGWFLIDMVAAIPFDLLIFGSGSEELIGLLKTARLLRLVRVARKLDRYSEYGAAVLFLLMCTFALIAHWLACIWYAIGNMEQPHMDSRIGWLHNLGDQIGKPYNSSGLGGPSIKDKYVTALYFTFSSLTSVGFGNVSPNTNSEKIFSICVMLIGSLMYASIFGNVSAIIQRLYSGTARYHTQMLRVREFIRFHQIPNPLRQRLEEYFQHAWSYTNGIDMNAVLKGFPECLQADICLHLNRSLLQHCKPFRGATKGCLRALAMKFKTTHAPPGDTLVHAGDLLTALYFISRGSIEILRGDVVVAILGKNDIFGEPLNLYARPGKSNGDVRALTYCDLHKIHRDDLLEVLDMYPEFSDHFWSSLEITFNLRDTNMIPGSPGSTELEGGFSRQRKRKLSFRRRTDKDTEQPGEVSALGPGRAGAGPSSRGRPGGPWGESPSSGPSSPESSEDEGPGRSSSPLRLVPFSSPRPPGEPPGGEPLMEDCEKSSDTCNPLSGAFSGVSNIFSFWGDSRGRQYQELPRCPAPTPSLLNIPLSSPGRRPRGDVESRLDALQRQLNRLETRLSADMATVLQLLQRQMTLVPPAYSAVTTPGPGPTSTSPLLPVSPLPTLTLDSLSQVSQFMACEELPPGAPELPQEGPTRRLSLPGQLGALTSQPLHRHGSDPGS
T6 sequence (P13504 20-576): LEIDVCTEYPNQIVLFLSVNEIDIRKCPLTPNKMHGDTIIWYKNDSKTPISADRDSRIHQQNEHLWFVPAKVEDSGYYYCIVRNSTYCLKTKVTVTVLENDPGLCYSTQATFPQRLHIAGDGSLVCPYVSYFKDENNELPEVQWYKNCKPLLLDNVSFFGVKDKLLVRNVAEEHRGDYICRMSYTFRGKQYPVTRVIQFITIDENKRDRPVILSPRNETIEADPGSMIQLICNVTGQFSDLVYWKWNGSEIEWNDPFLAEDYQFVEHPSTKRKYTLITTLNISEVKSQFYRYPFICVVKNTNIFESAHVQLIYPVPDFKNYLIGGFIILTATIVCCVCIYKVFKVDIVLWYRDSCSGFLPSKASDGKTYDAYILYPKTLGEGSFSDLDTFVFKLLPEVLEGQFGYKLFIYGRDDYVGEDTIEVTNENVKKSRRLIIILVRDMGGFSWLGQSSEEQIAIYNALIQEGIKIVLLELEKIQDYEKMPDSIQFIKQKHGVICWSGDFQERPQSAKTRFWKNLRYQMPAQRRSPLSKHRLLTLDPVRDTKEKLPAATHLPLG
T5 sequence (P21917 with tags, fused parts or gaps DEL265-296): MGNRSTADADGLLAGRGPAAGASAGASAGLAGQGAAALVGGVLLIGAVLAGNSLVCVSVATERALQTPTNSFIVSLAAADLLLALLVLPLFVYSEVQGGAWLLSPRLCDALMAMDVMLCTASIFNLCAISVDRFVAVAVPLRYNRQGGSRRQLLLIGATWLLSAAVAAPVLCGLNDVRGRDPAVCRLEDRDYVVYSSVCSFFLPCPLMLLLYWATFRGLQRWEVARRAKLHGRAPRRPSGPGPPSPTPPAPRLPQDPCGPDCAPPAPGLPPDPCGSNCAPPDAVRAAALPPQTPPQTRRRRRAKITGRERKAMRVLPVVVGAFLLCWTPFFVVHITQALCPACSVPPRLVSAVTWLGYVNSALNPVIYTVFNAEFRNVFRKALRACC
T7 sequence (P48039 whole entry): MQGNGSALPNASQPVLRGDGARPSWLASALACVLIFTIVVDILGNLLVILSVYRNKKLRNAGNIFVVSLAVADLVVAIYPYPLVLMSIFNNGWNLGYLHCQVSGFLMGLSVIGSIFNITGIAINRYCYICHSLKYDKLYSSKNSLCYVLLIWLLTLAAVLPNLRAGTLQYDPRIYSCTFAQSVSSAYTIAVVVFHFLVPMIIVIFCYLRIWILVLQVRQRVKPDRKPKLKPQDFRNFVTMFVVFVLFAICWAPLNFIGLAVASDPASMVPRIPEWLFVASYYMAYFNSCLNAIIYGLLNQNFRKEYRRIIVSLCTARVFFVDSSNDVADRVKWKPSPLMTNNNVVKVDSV
T2 sequence (P08588 whole entry): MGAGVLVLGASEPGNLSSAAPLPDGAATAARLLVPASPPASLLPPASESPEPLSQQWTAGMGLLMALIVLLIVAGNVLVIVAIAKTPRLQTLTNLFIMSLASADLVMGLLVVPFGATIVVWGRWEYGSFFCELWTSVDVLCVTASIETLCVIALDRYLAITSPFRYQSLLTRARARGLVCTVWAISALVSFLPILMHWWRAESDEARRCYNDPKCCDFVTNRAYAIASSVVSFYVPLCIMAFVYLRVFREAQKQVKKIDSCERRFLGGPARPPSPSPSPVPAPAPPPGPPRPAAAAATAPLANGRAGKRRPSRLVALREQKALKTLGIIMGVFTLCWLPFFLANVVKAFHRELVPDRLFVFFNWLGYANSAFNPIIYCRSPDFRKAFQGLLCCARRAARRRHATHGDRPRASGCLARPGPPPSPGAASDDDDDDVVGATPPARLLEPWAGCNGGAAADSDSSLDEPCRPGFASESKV
T8 sequence (P25929 whole entry): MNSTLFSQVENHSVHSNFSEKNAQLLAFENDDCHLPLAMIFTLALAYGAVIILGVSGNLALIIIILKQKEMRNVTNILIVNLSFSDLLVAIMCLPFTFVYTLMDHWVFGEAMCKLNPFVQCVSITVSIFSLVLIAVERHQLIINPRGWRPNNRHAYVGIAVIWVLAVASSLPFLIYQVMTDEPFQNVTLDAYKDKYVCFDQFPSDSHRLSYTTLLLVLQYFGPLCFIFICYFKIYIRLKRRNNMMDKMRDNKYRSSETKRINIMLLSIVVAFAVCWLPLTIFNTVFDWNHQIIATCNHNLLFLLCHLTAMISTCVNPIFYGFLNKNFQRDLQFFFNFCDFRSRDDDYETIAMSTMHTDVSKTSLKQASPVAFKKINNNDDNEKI
T13 sequence (P25103 whole entry): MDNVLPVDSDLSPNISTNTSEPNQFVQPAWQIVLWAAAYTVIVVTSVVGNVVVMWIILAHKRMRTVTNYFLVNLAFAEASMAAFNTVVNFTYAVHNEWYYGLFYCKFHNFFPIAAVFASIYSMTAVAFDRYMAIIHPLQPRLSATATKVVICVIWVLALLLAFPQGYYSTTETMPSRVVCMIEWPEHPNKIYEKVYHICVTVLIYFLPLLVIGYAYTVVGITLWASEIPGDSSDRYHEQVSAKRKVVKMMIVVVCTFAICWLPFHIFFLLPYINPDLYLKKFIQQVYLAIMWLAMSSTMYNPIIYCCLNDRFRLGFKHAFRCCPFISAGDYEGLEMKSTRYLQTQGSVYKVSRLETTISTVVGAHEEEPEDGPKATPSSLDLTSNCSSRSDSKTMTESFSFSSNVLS

One may read the IC50 as the concentration that gives 50% inhibition. As to `NS(=O)(=O)c1ccc(NC2=CC(=O)c3ccccc3C2=O)cc1` [4-((1,4-dioxo-1,4-dihydronaphthalen-2-yl)amino)benzenesulfonamide], the figures for the IC50 with SK-MEL-5 cells and in the data set on A375 cells were 0.75 µM and above 35 µM, respectively.
Broadly, the inhibition is the change of the read-out against control, counted positive when it falls. For `NS(=O)(=O)c1ccc(NC2=CC(=O)c3ccccc3C2=O)cc1` [Example 1, 4-((1,4-Dioxo-1,4-dihydronaphthalen-2-yl)amino)benzenesulfonamide], the inhibition at 10 µM on Adenosine A3 stood at 15%; on Adrenergic β1, 20%; on Bradykinin B1 it was 29%; on Bradykinin B2 it was 11%; at Dopamine D4.2, 4%; at Interleukin IL-1, 6%. Besides, the inhibition at 10 µM at Melatonin MT1 is 9%; at Neuropeptide Y Y1, -6%; at Neuropeptide Y Y2, 5%; at Potassium Channel hERG it was -4%; in [1], 5%; on Sigma σ1, 15%. Further, on Tachykinin NK1, the inhibition at 10 µM turned out to be 37%.
